Where two headings read alike, the source gives them in different places.

Data set [1] in a line: Dynamic CT diffusion phantom study (dialysis cassette in fetal bovine serum). The data set is classed as physicochemical. To be noted: dialysis cassette 20,000 MWCO, 20 mmol Gd/L, CT signal over 30 h. The procedure: The described dynamic CT diffusion study compares the ability of Examples 1-10 and Reference compounds 1 and 4 to pass a semipermeable membrane (20 kDa). A 128-row clinical CT device (SOMATOM Definition, 128; Siemens Healthcare, Forchheim, Germany) was used to monitor the diffusion through a semipermeable membrane at 100 kV and 104 mA. Single measurements were performed at 0 min, 1 min, 2 min, 3 min, 5 min, 10 min, 15 min, 20 min, 30 min, 45 min, 60 min, 2 h, 3 h, 5 h, 7 h, 22 h, 24 h, 30 h after placing the dialysis cassette (Slide-A-Lyser, 20,000 MWCO, 0.1-0.5 mL Capacity, Thermo Scientific, Roskilde, Denmark) filled with contrast agent in fetal bovine serum solution (FBS, Sigma, F7524). The images were reconstructed with a slice thickness of 2.4 mm and a B30 convolution kernel. The used concentration in the dialysis cassettes of the investigated Examples 1-10 and Reference compounds 1 and 4 was 20 mmol Gd/L.
The imaging results for all investigated Examples and the Reference compounds 1 and 4 for the time points 0 min and 30 h after placing the cassettes in the FBS solution are depicted in FIG. 1. For image analysis, regions of interest were manually drawn on 1 centrally located slice for each time point (a representative measurement region is indicated in FIG. 1: Image RC1).

The conditions of data set [2]: 37 °C, cited from earlier work.
The nature of data set [3]: Relaxivity measurements at 1.4 T (MiniSpec mq60, 60 MHz, 37 °C) in water and human plasma. In kind it is physicochemical. The note with it: 1.41 T, normalized to Gd. The procedure:
Relaxivity Measurements at 1.4 T
Relaxivity measurements at 1.41 T were performed using a MiniSpec mq60 spectrometer (Bruker Analytik, Karlsruhe, Germany) operating at a resonance frequency of 60 MHz and a temperature of 37° C. The T1 relaxation times were determined using the standard inversion recovery (IR) method with a fixed relaxation delay of at least 5×T1. The variable inversion time (TI) was calculated automatically by the standard software of the MiniSpec mq60 (8 steps). The T2 measurements were done by using a Carr-Purcell-Meiboom-Gill (CPMG) pulse sequence, applying a relaxation delay of at least 5×T1.
Each relaxivity measurement was performed using three different Gd concentrations (3 concentrations between 0.05 and 2 mM). The T1 and T2 relaxation times of the example compounds 1 to 10 were measured in different media for example in water and human plasma. Human plasma preparation: For each experiment fresh blood was taken from a volunteer using 10 mL citrate-tubes (Sarstedt S-Monovette 02.1067.001, 10 mL, Citrate). The 10 mL citrate-tubes were carefully inverted 10 times to mix blood and anticoagulant and centrifuged for 15 minutes at 1811 g at room temperature (Eppendorf, Centrifuge 5810R).
The relaxivities ri (where i=1, 2) were calculated on the basis of the measured relaxation rates Ri in water and plasma: Ri=Ri(0)+ri[CGd], where Ri(0) represent the relaxation rate of the respective solvent and CGd the concentration of the compound normalized to the Gadolinium. The Gadolinium concentrations of the investigated solutions were verified by Inductively Coupled Plasma Mass Spectrometry (ICP-MS Agilent 7500a, Waldbronn, Germany).

The nature of data set [4]: Water solubility (exploratory, 10 mM Tris-HCl, 20 °C). The data set is classed as physicochemical. To be noted: water (10 mM Tris-HCl buffer), pH 7.4. On the procedure:
The exploratory water solubilities of the compounds were determined at room temperature (20° C.) in 0.5 mL buffer solution (10 mM Tris-HCl) in the microcentrifuge tubes (Eppendorf, 2.0 mL safe-lock caps). The solid compounds were added stepwise to the buffer solution. The suspension was mixed using a shaker (Heidolph Reax 2000) and treated 5 min in an ultrasound bath (Bandelin, Sonorex Super RK255H).

[5] abbreviates: 1.5 T, bovine plasma instead of human plasma, from Rohrer et al.
Where [6] appears, read: 3.0 T, plasma, reference compounds marked ^ (Rohrer et al., bovine plasma per Table 1 footnote).
[7] abbreviates: 3.0 T, reference compounds marked ^ (Rohrer et al. per Table 1 footnote).

Gadomer-17 [RC4]: the “Diffusion half-live (20 kDa)” value in data set [1] is “No diffusion”. The r1 human plasma in data set [2] (setting [5]) was 16 L/mmol/s; in data set [2] (setting [6]) it was 13 ± 1 L/mmol/s. Besides, the r1 water in data set [2] (1.5 T, from Rohrer et al.) was 17.3 L/mmol/s; in data set [2] (setting [7]) it was 13.0 ± 0.7 L/mmol/s.

For `CNC[C@H](O)[C@@H](O)[C@H](O)[C@H](O)CO.CNC[C@H](O)[C@@H](O)[C@H](O)[C@H](O)CO.O=C([O-])CN(CCN(CC(=O)[O-])CC(=O)O)CCN(CC(=O)[O-])CC(=O)O.[Gd+3]` [RC2, gadopentetate dimeglumine], the values for the r1 human plasma in data set [2] (setting [5]) and in data set [2] (setting [6]) were 4.1 L/mmol/s and 3.7 ± 0.2 L/mmol/s, respectively. Besides, the r1 water is 3.3 L/mmol/s in data set [2] (1.5 T, from Rohrer et al.) and 3.1 ± 0.3 L/mmol/s in data set [2] (setting [7]).

Regarding `CCOc1ccc(CC(CN(CCN(CC(=O)[O-])CC(=O)[O-])CC(=O)[O-])N(CC(=O)[O-])CC(=O)[O-])cc1.[Gd+3].[Na+].[Na+]` (stereo not drawn) [RC3, gadoxetate disodium], the r1 human plasma is 6.9 L/mmol/s in data set [2] (setting [5]) and 6.2 ± 0.3 L/mmol/s in data set [2] (setting [6]). Moreover, the r1 water in data set [2] (1.5 T, from Rohrer et al.) is 4.7 L/mmol/s; in data set [2] (setting [7]), 4.3 ± 0.3 L/mmol/s.

As to `O=C([O-])CN1CCN(CC(=O)[O-])CCN(CC(=O)N(CC(=O)NCC(CNC(=O)CN(C(=O)CN2CCN(CC(=O)[O-])CCN(CC(=O)[O-])CCN(CC(=O)[O-])CC2)c2ccccc2)(CNC(=O)CN(C(=O)CN2CCN(CC(=O)[O-])CCN(CC(=O)[O-])CCN(CC(=O)[O-])CC2)c2ccccc2)CNC(=O)CN(C(=O)CN2CCN(CC(=O)[O-])CCN(CC(=O)[O-])CCN(CC(=O)[O-])CC2)c2ccccc2)c2ccccc2)CCN(CC(=O)[O-])CC1.[Gd+3].[Gd+3].[Gd+3].[Gd+3]` [Example 9, Tetragadolinium [4,10-bis(carboxylatomethyl)-7-{2,5,11,14-tetraoxo-3,13-diphenyl-8,8-bis({[(phenyl{[4,7,10-tris(carboxylatomethyl)-1,4,7,10-tetraazacyclododecan-1-yl]-acetyl}amino)acetyl]amino}methyl)-15-[4,7,10-tris(carboxylatomethyl)-1,4,7,10-tetra-azacyclododecan-1-yl]-3,6,10,13-tetraazapentadec-1-yl}-1,4,7,10-tetraazacyclododecan-1-yl]acetate], in data set [3], the r1 human plasma turned out to be 12.0 L/mmol/s and the r1 water turned out to be 11.0 L/mmol/s. In data set [4], this compound displayed a Solubility greater than 1000 mg/100 mL. Moreover, the “Diffusion half-live (20 kDa)” value in data set [1] turned out to be 15.1 h.

In data set [3], `O=C([O-])CN1CCN(CC(=O)[O-])CCN(CC(=O)N(CC(=O)NCC(CNC(=O)CN(Cc2ccccc2)C(=O)CN2CCN(CC(=O)[O-])CCN(CC(=O)[O-])CCN(CC(=O)[O-])CC2)(CNC(=O)CN(Cc2ccccc2)C(=O)CN2CCN(CC(=O)[O-])CCN(CC(=O)[O-])CCN(CC(=O)[O-])CC2)CNC(=O)CN(Cc2ccccc2)C(=O)CN2CCN(CC(=O)[O-])CCN(CC(=O)[O-])CCN(CC(=O)[O-])CC2)Cc2ccccc2)CCN(CC(=O)[O-])CC1.[Gd+3].[Gd+3].[Gd+3].[Gd+3]` [Example 10, Tetragadolinium [4,10-bis(carboxylatomethyl)-7-{3,13-dibenzyl-8,8-bis({[(benzyl{[4,7,10-tris(carboxylatomethyl)-1,4,7,10-tetraazacyclododecan-1-yl]acetyl}amino)-acetyl]amino}methyl)-2,5,11,14-tetraoxo-15-[4,7,10-tris(carboxylatomethyl)-1,4,7,10-tetraazacyclododecan-1-yl]-3,6,10,13-tetraazapentadec-1-yl}-1,4,7,10-tetraazacyclo-dodecan-1-yl]acetate] gave a r1 human plasma of 13.3 L/mmol/s and a r1 water of 11.5 L/mmol/s. The compound further gave a Solubility in data set [4] greater than 1000 mg/100 mL. The “Diffusion half-live (20 kDa)” value in data set [1] stood at 15.0 h.

Source of the values: patent US10975060B2, “High relaxivity gadolinium chelate compounds for use in magnetic resonance imaging” (BAYER PHARMA AKTIENGESELLSCHAFT, priority 2016, dated 2021).
